Experimental data from PubChem BioAssay (NCI).
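Compound exposure: 48 hours, 5 concentrations, 96-well plates. TGI: total growth inhibition.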

What was measured:
Assay in all cases: NCI anticancer screen, dose series, 48 h
SNB-75 CNS = test system: SNB-75 CNS
TK-10 renal = test system: TK-10 renal
SF-295 CNS = test system: SF-295 CNS
MALME-3M melanoma = test system: MALME-3M melanoma
SK-MEL-2 melanoma = test system: SK-MEL-2 melanoma
HCT-15 colon = test system: HCT-15 colon
CAKI-1 renal = test system: CAKI-1 renal
OVCAR-4 ovarian = test system: OVCAR-4 ovarian
HCT-116 colon = test system: HCT-116 colon
HL-60(TB) leukemia = test system: HL-60(TB) leukemia
SK-OV-3 ovarian = test system: SK-OV-3 ovarian
MCF7 breast = test system: MCF7 breast
RXF 393 renal = test system: RXF 393 renal
SF-268 CNS = test system: SF-268 CNS
COLO 205 colon = test system: COLO 205 colon
SK-MEL-28 melanoma = test system: SK-MEL-28 melanoma
NCI-H23 lung = test system: NCI-H23 lung
SW-620 colon = test system: SW-620 colon
PC-3 prostate = test system: PC-3 prostate
OVCAR-3 ovarian = test system: OVCAR-3 ovarian
MOLT-4 leukemia = test system: MOLT-4 leukemia
SF-539 CNS = test system: SF-539 CNS
UACC-62 melanoma = test system: UACC-62 melanoma
EKVX NSCLC = test system: EKVX NSCLC
UO-31 renal = test system: UO-31 renal
RPMI-8226 leukemia = test system: RPMI-8226 leukemia
HOP-62 NSCLC = test system: HOP-62 NSCLC
NCI/ADR-RES ovarian = test system: NCI/ADR-RES ovarian
NCI-H226 lung = test system: NCI-H226 lung
LOX IMVI melanoma = test system: LOX IMVI melanoma
IGROV1 ovarian = test system: IGROV1 ovarian
MDA-MB-435 = test system: MDA-MB-435
M14 melanoma = test system: M14 melanoma
786-0 renal = test system: 786-0 renal
DU-145 prostate = test system: DU-145 prostate
NCI-H460 lung = test system: NCI-H460 lung
K-562 leukemia = test system: K-562 leukemia
HS 578T breast = test system: HS 578T breast
OVCAR-8 ovarian = test system: OVCAR-8 ovarian
A549 NSCLC = test system: A549 NSCLC
U251 CNS = test system: U251 CNS
SNB-19 CNS = test system: SNB-19 CNS
CCRF-CEM leukemia = test system: CCRF-CEM leukemia
BT-549 breast = test system: BT-549 breast
SK-MEL-5 melanoma = test system: SK-MEL-5 melanoma
UACC-257 melanoma = test system: UACC-257 melanoma
HOP-92 NSCLC = test system: HOP-92 NSCLC
NCI-H522 lung = test system: NCI-H522 lung
HCC-2998 colon = test system: HCC-2998 colon
SR leukemia = test system: SR leukemia
HT29 colon = test system: HT29 colon
KM12 colon = test system: KM12 colon
ACHN renal = test system: ACHN renal
SN12C renal = test system: SN12C renal
MDA-MB-231 breast = test system: MDA-MB-231 breast
MDA-N = test system: MDA-N
T-47D breast = test system: T-47D breast
OVCAR-5 ovarian = test system: OVCAR-5 ovarian
A498 renal = test system: A498 renal

Measured: TGI

c1coc(C2=Nc3cccc4cccc(c34)N2)c1
65.4 µM: HL-60(TB) leukemia | OVCAR-3 ovarian
57.3 µM: HT29 colon
56.3 µM: HCT-116 colon
28 µM: COLO 205 colon
40.8 µM: KM12 colon
39.3 µM: SF-539 CNS
23.2 µM: NCI-H522 lung
80.8 µM: PC-3 prostate
76.9 µM: RXF 393 renal
44.4 µM: NCI/ADR-RES ovarian
64.7 µM: UO-31 renal
23 µM: T-47D breast
60.5 µM: HOP-92 NSCLC
84.9 µM: OVCAR-4 ovarian
57.6 µM: ACHN renal
not listed: OVCAR-5 ovarian | A498 renal
> 100 µM: all other assays above

CC1=CC(C)(C)[C@H]2O[C@@]3(O)C[C@]4(C)[C@H]5C[C@@](C(C)C)(O[C@H]4c4ccoc4)O[C@H]4[C@]5(C3)O[C@@]1(O)[C@]24O
82 µM: HOP-62 NSCLC
45.8 µM: NCI-H522 lung
64.6 µM: SNB-75 CNS
not listed: NCI-H460 lung | A498 renal
> 100 µM: all other assays above

O=c1c(-c2ccccc2)c2n(c3ccccc13)CCN2
86.9 µM: SNB-19 CNS
66.6 µM: OVCAR-3 ovarian
61.1 µM: SK-MEL-2 melanoma
not listed: MALME-3M melanoma | SK-OV-3 ovarian | RXF 393 renal | NCI-H522 lung
> 100 µM: all other assays above

C=CCN1CCN([C@H](c2ccc(C(=O)N(CC)CC)cc2)c2cccc(OC)c2)CC1
not listed: SNB-75 CNS | TK-10 renal | RXF 393 renal | LOX IMVI melanoma | NCI-H460 lung | K-562 leukemia | CCRF-CEM leukemia | UACC-257 melanoma | HCC-2998 colon
> 25 µM: all other assays above

COc1ccc(/C=C2\Oc3cc(OC(C)=O)ccc3C2=O)cc1
45.1 µM: NCI-H522 lung
86.7 µM: CAKI-1 renal
not listed: MALME-3M melanoma | SK-MEL-2 melanoma | LOX IMVI melanoma | HOP-92 NSCLC | HT29 colon | OVCAR-5 ovarian | A498 renal
> 100 µM: all other assays above
